# Results taken from article PMC11930087, “Mobility of four structural regions drives isoform-specific properties of photoenzyme LPOR in plants” (The Journal of Biological Chemistry, 2025).
# Experiments:
# [1] = molecular target: T1, AtPORA (Arabidopsis thaliana, UniProt Q42536); experiment: […] K Pchlide fluorescence in darkness, F648/F635 ratio vs NADPH, hyperbolic fit; format: binding; settings: lipid-free; 5 μM Pchlide, 15 μM LPOR, pH 7.1, room-temperature dark incubation; apparent parameter, exact value in supplement; read-out: KM^D
# T1 construct: gene PORA
# T1 sequence (Q42536 70-405): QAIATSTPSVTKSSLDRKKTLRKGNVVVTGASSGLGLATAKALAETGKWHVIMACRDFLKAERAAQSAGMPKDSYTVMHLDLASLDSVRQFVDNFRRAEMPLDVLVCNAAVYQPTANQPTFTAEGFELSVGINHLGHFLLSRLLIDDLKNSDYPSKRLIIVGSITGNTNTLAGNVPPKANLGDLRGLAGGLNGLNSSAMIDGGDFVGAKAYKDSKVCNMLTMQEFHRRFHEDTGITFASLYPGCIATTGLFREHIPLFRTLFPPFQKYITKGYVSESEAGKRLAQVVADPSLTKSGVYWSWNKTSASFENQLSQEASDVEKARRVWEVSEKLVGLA
# [2] = molecular target: T2, TaPOR1 (Triticum aestivum, UniProt Q41578); experiment: as above; format: binding; settings: lipid-free; 5 μM Pchlide, 15 μM LPOR, pH 7.1, room-temperature dark incubation; apparent parameter, exact value in supplement; read-out: KM^D
# T2 construct: gene PORA
# T2 sequence (Q41578 75-388): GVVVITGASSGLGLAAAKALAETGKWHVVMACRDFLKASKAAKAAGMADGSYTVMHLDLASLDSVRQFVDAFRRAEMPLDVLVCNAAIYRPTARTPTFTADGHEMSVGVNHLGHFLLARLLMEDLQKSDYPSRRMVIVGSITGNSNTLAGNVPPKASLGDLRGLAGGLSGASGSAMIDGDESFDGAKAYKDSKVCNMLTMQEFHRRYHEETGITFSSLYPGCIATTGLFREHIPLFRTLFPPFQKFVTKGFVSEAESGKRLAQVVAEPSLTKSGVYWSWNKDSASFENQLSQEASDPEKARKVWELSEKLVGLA
# [3] = molecular target: T3, HaPOR2 (Helianthus annuus, UniProt A0A251TWA4); experiment: as above; format: binding; settings: lipid-free; 5 μM Pchlide, 15 μM LPOR, pH 7.1, room-temperature dark incubation; apparent parameter, exact value in supplement; read-out: KM^D
# T3 construct: gene PORA; transit peptide removed; pET15b
# T3 sequence (A0A251TWA4 53-387): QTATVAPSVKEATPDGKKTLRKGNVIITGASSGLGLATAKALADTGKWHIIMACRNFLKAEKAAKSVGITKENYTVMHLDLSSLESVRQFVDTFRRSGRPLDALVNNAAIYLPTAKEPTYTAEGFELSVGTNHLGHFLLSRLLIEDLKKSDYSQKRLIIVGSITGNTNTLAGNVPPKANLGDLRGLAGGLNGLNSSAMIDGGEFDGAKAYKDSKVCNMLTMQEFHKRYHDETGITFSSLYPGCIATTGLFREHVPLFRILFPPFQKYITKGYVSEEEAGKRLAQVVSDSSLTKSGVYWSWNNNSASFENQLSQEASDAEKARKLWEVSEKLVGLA
# [4] = molecular target: T4, PinPOR (Pinus mugo, UniProt Q41202); experiment: as above; format: binding; settings: lipid-free; 5 μM Pchlide, 15 μM LPOR, pH 7.1, room-temperature dark incubation; apparent parameter, exact value in supplement; read-out: KM^D
# T4 construct: transit peptide removed; pET15b
# T4 sequence (Q41202 67-400): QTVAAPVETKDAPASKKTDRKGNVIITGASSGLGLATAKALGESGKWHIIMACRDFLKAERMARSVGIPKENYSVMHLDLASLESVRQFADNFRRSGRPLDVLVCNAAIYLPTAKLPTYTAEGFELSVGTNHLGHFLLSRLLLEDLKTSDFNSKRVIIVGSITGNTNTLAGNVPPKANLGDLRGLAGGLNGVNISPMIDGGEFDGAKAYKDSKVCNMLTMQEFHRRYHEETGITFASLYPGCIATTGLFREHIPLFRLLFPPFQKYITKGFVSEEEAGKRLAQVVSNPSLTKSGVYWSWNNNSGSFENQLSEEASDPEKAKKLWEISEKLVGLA
# [5] = molecular target: T1, AtPORA; settings: 400 uM OPT lipids; substrate; read-out: illuminated, 400 uM OPT, KM^L
# Source text: (§1) All samples were thawed in darkness, illuminated for 20 s to initiate the reaction, and then frozen again and remeasured. […] These plots also resembled saturation curves, to which a hyperbolic function similar to the modified Michaelis–Menten equation could be fitted (Figs. 3C, S5, Materials and Methods).
# [6] = molecular target: T5, AtPORC (Arabidopsis thaliana, UniProt O48741); settings: 400 uM OPT lipids; substrate; read-out: illuminated, 400 uM OPT, KM^L
# T5 construct: gene PORC
# T5 sequence (O48741 68-401): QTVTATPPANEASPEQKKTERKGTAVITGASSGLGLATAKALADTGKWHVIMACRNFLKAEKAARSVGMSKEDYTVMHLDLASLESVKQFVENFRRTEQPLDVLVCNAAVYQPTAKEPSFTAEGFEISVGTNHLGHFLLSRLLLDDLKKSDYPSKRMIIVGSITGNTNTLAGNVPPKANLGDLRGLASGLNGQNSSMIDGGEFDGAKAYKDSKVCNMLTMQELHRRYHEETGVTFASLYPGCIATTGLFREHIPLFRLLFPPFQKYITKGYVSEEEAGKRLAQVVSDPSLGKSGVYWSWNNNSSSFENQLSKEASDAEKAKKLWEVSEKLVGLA
# Source text: as §1
# [7] = molecular target: T2, TaPOR1; settings: 400 uM OPT lipids; substrate; read-out: illuminated, 400 uM OPT, KM^L
# Source text: as §1
# [8] = molecular target: T6, TaPOR2 (Triticum aestivum, UniProt A0A3B5XZQ9); settings: 400 uM OPT lipids; substrate; read-out: illuminated, 400 uM OPT, KM^L
# T6 construct: gene LOC123047424
# T6 sequence (A0A3B5XZQ9 60-395): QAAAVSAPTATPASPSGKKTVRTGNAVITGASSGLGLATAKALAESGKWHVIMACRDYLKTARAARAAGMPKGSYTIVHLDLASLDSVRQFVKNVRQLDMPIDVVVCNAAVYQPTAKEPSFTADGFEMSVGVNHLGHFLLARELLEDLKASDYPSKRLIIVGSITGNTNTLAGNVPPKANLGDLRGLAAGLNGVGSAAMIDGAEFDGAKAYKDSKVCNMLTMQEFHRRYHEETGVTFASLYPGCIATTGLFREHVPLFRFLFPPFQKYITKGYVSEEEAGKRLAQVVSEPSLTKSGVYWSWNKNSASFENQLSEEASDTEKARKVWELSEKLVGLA
# Source text: as §1
compound,measurement,setting,value
NC(=O)C1=CN([C@@H]2O[C@H](COP(=O)(O)OP(=O)(O)OC[C@H]3O[C@@H](n4cnc5c(N)ncnc54)[C@H](OP(=O)(O)O)[C@@H]3O)[C@@H](O)[C@H]2O)C=CC1 [NADPH],Kd,[1],> 100 µM
same,Kd,[2],> 100 µM
same,Kd,[3],< 10 µM
same,Kd,[4],< 10 µM
same,Km,[5],2500 nM
same,Km,[6],700 nM
same,Km,[7],39.7 µM
same,Km,[8],6.1 µM
